Experimental data as given in the supplement of paper PMC10307832.

Legend:
Experiment in all cases: relative viability (nuclei count vs DMSO), 5 days (fraction); higher = more cells survive
[1] = tested on: ChaGo-K-1
Outline: (§1)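 For relative viability, nuclei counts in treated wells were divided by those in vehicle wells. Lung cancer cell lines had been pin-tool dosed in 1536-well plates the day after seeding and cultured for 5 days, then fixed and stained in one step (final 0.05% Triton X-100, 1% formaldehyde, 1 ug/ml Hoechst) and imaged at 4×. Doses were one drug alone or a fixed anchor-drug dose plus five library-drug doses (not always all listed) in √10 steps, and values are duplicate-plate medians.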

[2] = tested on: EKVX
Outline: as §1

[3] = tested on: EMC-BAC-2
Outline: as §1

[4] = tested on: EPLC-272H
Outline: as §1

[5] = tested on: HCC-78
Outline: as §1

[6] = tested on: HCC-827
Outline: as §1

[7] = tested on: LCLC-103H
Outline: as §1

[8] = tested on: LU99A
Outline: as §1

[9] = tested on: LXF-289
Outline: as §1

[10] = tested on: NCI-H1563
Outline: as §1

[11] = tested on: NCI-H1666
Outline: as §1

[12] = tested on: NCI-H1975
Outline: as §1

[13] = tested on: NCI-H2126
Outline: as §1

[14] = tested on: NCI-H23
Outline: as §1

[15] = tested on: NCI-H2405
Outline: as §1

[16] = tested on: NCI-H322M
Outline: as §1

[17] = tested on: PC-14
Outline: as §1

[18] = tested on: RERF-LC-KJ
Outline: as §1

[19] = tested on: SK-LU-1
Outline: as §1

[20] = tested on: SW 1573
Outline: as §1

[21] = tested on: LK-2
Outline: as §1

CCN(CC)CCCCNc1ncc2cc(-c3cc(OC)cc(OC)c3)c(NC(=O)NC(C)(C)C)nc2n1 + CC(C)C[C@H](NC(=O)[C@H](Cc1ccccc1)NC(=O)c1cnccn1)B(O)O [Bortezomib] (partner 0.002 µM)
relative viability ([1]; first compound 0.01 µM): 1.08
relative viability ([1]; first compound 0.03162 µM): 1.14
relative viability ([1]; first compound 0.1 µM): 1.28
relative viability ([1]; first compound 0.3162 µM): 1.27
relative viability ([1]; first compound 1 µM): 0.742
relative viability ([2]; first compound 0.01 µM): 1.15
relative viability ([2]; first compound 0.03162 µM): 0.957
relative viability ([2]; first compound 0.1 µM): 1.2
relative viability ([2]; first compound 0.3162 µM): 1.21
relative viability ([2]; first compound 1 µM): 1.1
relative viability ([3]; first compound 0.01 µM): 1.11
relative viability ([3]; first compound 0.03162 µM): 1.07
relative viability ([3]; first compound 0.1 µM): 1.11
relative viability ([3]; first compound 0.3162 µM): 1.19
relative viability ([3]; first compound 1 µM): 1.04
relative viability ([4]; first compound 0.01 µM): 1.02
relative viability ([4]; first compound 0.1 µM): 0.921
relative viability ([4]; first compound 0.3162 µM): 1.03
relative viability ([4]; first compound 1 µM): 0.796
relative viability ([5]; first compound 0.01 µM): 0.66
relative viability ([5]; first compound 0.03162 µM): 0.487
relative viability ([5]; first compound 0.1 µM): 0.395
relative viability ([5]; first compound 0.3162 µM): 0.492
relative viability ([5]; first compound 1 µM): 0.464
relative viability ([6]; first compound 0.01 µM): 1.07
relative viability ([6]; first compound 0.03162 µM): 1
relative viability ([6]; first compound 0.1 µM): 1.09
relative viability ([6]; first compound 0.3162 µM): 1.04
relative viability ([6]; first compound 1 µM): 1.05
relative viability ([7]; first compound 0.01 µM): 1.07
relative viability ([7]; first compound 0.03162 µM): 1.06
relative viability ([7]; first compound 0.1 µM): 1.09
relative viability ([7]; first compound 0.3162 µM): 1.13
relative viability ([7]; first compound 1 µM): 0.945
relative viability ([8]; first compound 0.01 µM): 1.03
relative viability ([8]; first compound 0.03162 µM): 1.16
relative viability ([8]; first compound 0.1 µM): 1.34
relative viability ([8]; first compound 0.3162 µM): 1.23
relative viability ([8]; first compound 1 µM): 1.13
relative viability ([9]; first compound 0.01 µM): 0.99
relative viability ([9]; first compound 0.03162 µM): 1.08
relative viability ([9]; first compound 0.1 µM): 1.16
relative viability ([9]; first compound 0.3162 µM): 0.955
relative viability ([9]; first compound 1 µM): 0.846
relative viability ([10]; first compound 0.01 µM): 0.722
relative viability ([10]; first compound 0.03162 µM): 0.847
relative viability ([10]; first compound 0.1 µM): 0.818
relative viability ([10]; first compound 0.3162 µM): 0.809
relative viability ([10]; first compound 1 µM): 0.52
relative viability ([11]; first compound 0.01 µM): 0.74
relative viability ([11]; first compound 0.03162 µM): 0.848
relative viability ([11]; first compound 0.1 µM): 0.837
relative viability ([11]; first compound 0.3162 µM): 0.724
relative viability ([11]; first compound 1 µM): 0.733
relative viability ([12]; first compound 0.01 µM): 0.442
relative viability ([12]; first compound 0.03162 µM): 0.375
relative viability ([12]; first compound 0.1 µM): 0.394
relative viability ([12]; first compound 0.3162 µM): 0.451
relative viability ([12]; first compound 1 µM): 0.365
relative viability ([13]; first compound 0.01 µM): 1.23
relative viability ([13]; first compound 0.03162 µM): 1.16
relative viability ([13]; first compound 0.1 µM): 1.22
relative viability ([13]; first compound 0.3162 µM): 1.19
relative viability ([13]; first compound 1 µM): 1.13
relative viability ([14]; first compound 0.01 µM): 1.06
relative viability ([14]; first compound 0.03162 µM): 1.24
relative viability ([14]; first compound 0.1 µM): 1.09
relative viability ([14]; first compound 0.3162 µM): 1.21
relative viability ([14]; first compound 1 µM): 0.91
relative viability ([15]; first compound 0.01 µM): 0.973
relative viability ([15]; first compound 0.03162 µM): 0.866
relative viability ([15]; first compound 0.1 µM): 1.05
relative viability ([15]; first compound 0.3162 µM): 1.04
relative viability ([15]; first compound 1 µM): 0.982
relative viability ([16]; first compound 0.01 µM): 1.29
relative viability ([16]; first compound 0.03162 µM): 1.36
relative viability ([16]; first compound 0.1 µM): 1.35
relative viability ([16]; first compound 0.3162 µM): 1.39
relative viability ([16]; first compound 1 µM): 1.08
relative viability ([17]; first compound 0.01 µM): 0.894
relative viability ([17]; first compound 0.03162 µM): 0.855
relative viability ([17]; first compound 0.1 µM): 0.947
relative viability ([17]; first compound 0.3162 µM): 0.962
relative viability ([17]; first compound 1 µM): 0.843
relative viability ([18]; first compound 0.01 µM): 1.17
relative viability ([18]; first compound 0.03162 µM): 1.15
relative viability ([18]; first compound 0.1 µM): 1.05
relative viability ([18]; first compound 0.3162 µM): 1.21
relative viability ([18]; first compound 1 µM): 1
relative viability ([19]; first compound 0.01 µM): 1.1
relative viability ([19]; first compound 0.03162 µM): 0.911
relative viability ([19]; first compound 0.1 µM): 1.27
relative viability ([19]; first compound 0.3162 µM): 1.75
relative viability ([19]; first compound 1 µM): 1.06
relative viability ([20]; first compound 0.01 µM): 1.03
relative viability ([20]; first compound 0.03162 µM): 0.991
relative viability ([20]; first compound 0.1 µM): 1.07
relative viability ([20]; first compound 0.3162 µM): 1.03
relative viability ([20]; first compound 1 µM): 0.936

O=c1cc(N2CCOCC2)oc2c(-c3cccc4c3sc3ccccc34)cccc12 + Cc1nc(NC(=O)N2CCC[C@H]2C(N)=O)sc1-c1ccnc(C(C)(C)C(F)(F)F)c1 [Alpelisib] (partner 2 µM)
relative viability ([2]; first compound 0.01 µM): 0.88
relative viability ([2]; first compound 0.03162 µM): 0.868
relative viability ([2]; first compound 0.1 µM): 0.883
relative viability ([2]; first compound 0.3162 µM): 0.858
relative viability ([2]; first compound 1 µM): 0.824
relative viability ([3]; first compound 0.01 µM): 0.726
relative viability ([3]; first compound 0.03162 µM): 0.781
relative viability ([3]; first compound 0.1 µM): 0.813
relative viability ([3]; first compound 0.3162 µM): 0.759
relative viability ([3]; first compound 1 µM): 0.722
relative viability ([4]; first compound 0.01 µM): 0.955
relative viability ([4]; first compound 0.03162 µM): 0.957
relative viability ([4]; first compound 0.3162 µM): 1.03
relative viability ([4]; first compound 1 µM): 0.891
relative viability ([5]; first compound 0.01 µM): 0.374
relative viability ([5]; first compound 0.03162 µM): 0.305
relative viability ([5]; first compound 0.1 µM): 0.299
relative viability ([5]; first compound 0.3162 µM): 0.406
relative viability ([5]; first compound 1 µM): 0.331
relative viability ([6]; first compound 0.01 µM): 0.918
relative viability ([6]; first compound 0.03162 µM): 0.931
relative viability ([6]; first compound 0.1 µM): 0.911
relative viability ([6]; first compound 0.3162 µM): 0.947
relative viability ([6]; first compound 1 µM): 0.914
relative viability ([7]; first compound 0.01 µM): 0.904
relative viability ([7]; first compound 0.03162 µM): 0.924
relative viability ([7]; first compound 0.1 µM): 1.03
relative viability ([7]; first compound 0.3162 µM): 1.03
relative viability ([7]; first compound 1 µM): 0.93
relative viability ([21]; first compound 0.01 µM): 1.1
relative viability ([21]; first compound 0.03162 µM): 1.01
relative viability ([21]; first compound 0.1 µM): 1.14
relative viability ([21]; first compound 0.3162 µM): 1.03
relative viability ([21]; first compound 1 µM): 1.25
relative viability ([8]; first compound 0.01 µM): 0.595
relative viability ([8]; first compound 0.03162 µM): 0.532
relative viability ([8]; first compound 0.1 µM): 0.521
relative viability ([8]; first compound 0.3162 µM): 0.598
relative viability ([8]; first compound 1 µM): 0.571
relative viability ([9]; first compound 0.01 µM): 1.05
relative viability ([9]; first compound 0.03162 µM): 1.03
relative viability ([9]; first compound 0.1 µM): 1.05
relative viability ([9]; first compound 0.3162 µM): 1
relative viability ([9]; first compound 1 µM): 1.02
relative viability ([10]; first compound 0.01 µM): 0.917
relative viability ([10]; first compound 0.03162 µM): 0.858
relative viability ([10]; first compound 0.1 µM): 0.93
relative viability ([10]; first compound 0.3162 µM): 0.833
relative viability ([10]; first compound 1 µM): 0.844
relative viability ([11]; first compound 0.01 µM): 0.936
relative viability ([11]; first compound 0.03162 µM): 0.864
relative viability ([11]; first compound 0.1 µM): 0.977
relative viability ([11]; first compound 0.3162 µM): 0.963
relative viability ([11]; first compound 1 µM): 0.832
relative viability ([12]; first compound 0.01 µM): 0.619
relative viability ([12]; first compound 0.03162 µM): 0.623
relative viability ([12]; first compound 0.1 µM): 0.649
relative viability ([12]; first compound 0.3162 µM): 0.621
relative viability ([12]; first compound 1 µM): 0.608
relative viability ([13]; first compound 0.01 µM): 0.721
relative viability ([13]; first compound 0.03162 µM): 0.736
relative viability ([13]; first compound 0.1 µM): 0.762
relative viability ([13]; first compound 0.3162 µM): 0.733
relative viability ([13]; first compound 1 µM): 0.729
relative viability ([14]; first compound 0.01 µM): 0.71
relative viability ([14]; first compound 0.03162 µM): 0.662
relative viability ([14]; first compound 0.3162 µM): 0.665
relative viability ([14]; first compound 1 µM): 0.745
relative viability ([15]; first compound 0.01 µM): 0.895
relative viability ([15]; first compound 0.03162 µM): 0.885
relative viability ([15]; first compound 0.1 µM): 0.838
relative viability ([15]; first compound 0.3162 µM): 0.835
relative viability ([15]; first compound 1 µM): 0.827
relative viability ([16]; first compound 0.01 µM): 0.804
relative viability ([16]; first compound 0.03162 µM): 0.721
relative viability ([16]; first compound 0.3162 µM): 0.82
relative viability ([16]; first compound 1 µM): 0.813
relative viability ([17]; first compound 0.01 µM): 0.987
relative viability ([17]; first compound 0.03162 µM): 0.891
relative viability ([17]; first compound 0.1 µM): 0.931
relative viability ([17]; first compound 0.3162 µM): 1.04
relative viability ([17]; first compound 1 µM): 0.978
relative viability ([18]; first compound 0.01 µM): 0.834
relative viability ([18]; first compound 0.03162 µM): 0.892
relative viability ([18]; first compound 0.1 µM): 0.981
relative viability ([18]; first compound 0.3162 µM): 0.86
relative viability ([18]; first compound 1 µM): 0.9
relative viability ([19]; first compound 0.03162 µM): 0.966
relative viability ([19]; first compound 0.1 µM): 0.985
relative viability ([19]; first compound 0.3162 µM): 1.09
relative viability ([19]; first compound 1 µM): 1.01
relative viability ([20]; first compound 0.01 µM): 1.13
relative viability ([20]; first compound 0.03162 µM): 0.736
relative viability ([20]; first compound 0.1 µM): 0.868
relative viability ([20]; first compound 0.3162 µM): 0.735
relative viability ([20]; first compound 1 µM): 0.733
